Reference: patent US6525001B1, “Substituted pyrimidine and pyridine herbicides” (Mid-American Commercialization Corporation, priority 1997, dated 2003)

Assays:
Format in all cases: in vivo
[1] = test system: velvetleaf (Abutilon theophrasti); experiment: Test B pre-/postemergence; design: key: 0 is no effect; 10 is complete control
Description: (§1) Seeds of bedstraw (Galium aparine), blackgrass (Alopecurus myosuroides), broadleaf signalgrass (Brachiaria decumbens), cocklebur (Xanthium strumarium), corn (Zea mays), crabgrass (Digitaria sanguinalis), giant foxtail (Setaria faberii), lambsquarters (Chenopodium album), momingglory (Ipomoea hederacea), pigweed (Amaranthus retroflexus), rape (Brassica napus), soybean (Glycine max), sugar beet (Beta vulgaris), velvetleaf (Abutilon theophrasti), wheat (Triticum aestivum), wild oat (Avena fatua) and purple nutsedge (Cyperus rotundus) tubers were planted and treated preemergence with test chemicals formulated in a non-phytotoxic solvent mixture which included a surfactant.
(§2) At the same time, these crop and weed species were also treated with postemergence applications of test chemicals formulated in the same manner. Plants ranged in height from 2 to 18 cm (1- to 4-leaf stage) for postemergence treatments. Plant species in the flood test consisted of rice (Oryza sativa), smallflower flatsedge (Cyperus difformis), duck salad (Heteranthera limosa) and bamyardgrass (Echinochloa crus-galli) grown to the 2-leaf stage for testing. Treated plants and controls were maintained in a greenhouse for twelve to sixteen days, after which all species were compared to controls and visually evaluated. Plant response ratings, summarized in Table B, are based on a scale of 0 to 10 where 0 is no effect and 10 is complete control. A dash (−) response means no test result.

[2] = test system: giant foxtail (Setaria faberii); experiment: Test B pre-/postemergence; design: key: 0 is no effect; 10 is complete control
Description: as §1, §2

[3] = test system: sugar beet (Beta vulgaris); experiment: Test B pre-/postemergence; design: key: 0 is no effect; 10 is complete control
Description: as §1, §2

wild oat (Avena fatua) = experiment: Test B pre-/postemergence; design: key: 0 is no effect; 10 is complete control
Description: as §1, §2

[4] = test system: pigweed (Amaranthus retroflexus); experiment: Test B pre-/postemergence; design: key: 0 is no effect; 10 is complete control
Description: as §1, §2

corn (Zea mays) = experiment: Test B pre-/postemergence; design: key: 0 is no effect; 10 is complete control; details: for Corn plant response rating: Preemergence
Description: as §1, §2

[5] = test system: blackgrass (Alopecurus myosuroides); experiment: Test B pre-/postemergence; design: key: 0 is no effect; 10 is complete control; details: for Blackgrass plant response rating: Preemergence
Description: as §1, §2

[6] = test system: wheat (Triticum aestivum); experiment: Test B pre-/postemergence; design: key: 0 is no effect; 10 is complete control
Description: as §1, §2

[7] = test system: broadleaf signalgrass (Brachiaria decumbens); experiment: Test B pre-/postemergence; design: key: 0 is no effect; 10 is complete control; details: for B. signalgrass plant response rating: Preemergence
Description: as §1, §2

[8] = test system: crabgrass (Digitaria sanguinalis); experiment: Test B pre-/postemergence; design: key: 0 is no effect; 10 is complete control; details: for Crabgrass plant response rating: Preemergence
Description: as §1, §2

[9] = test system: cocklebur (Xanthium strumarium); experiment: Test B pre-/postemergence; design: key: 0 is no effect; 10 is complete control; details: for Plant response rating, Cocklebur: Postemergence; for Cocklebur plant response rating: Preemergence
Description: as §1, §2

rape (Brassica napus) = experiment: Test B pre-/postemergence; design: key: 0 is no effect; 10 is complete control
Description: as §1, §2

[10] = test system: bedstraw (Galium aparine); experiment: Test B pre-/postemergence; design: key: 0 is no effect; 10 is complete control; details: Postemergence
Description: as §1, §2

[11] = test system: purple nutsedge (Cyperus rotundus); experiment: Test B pre-/postemergence; design: key: 0 is no effect; 10 is complete control
Description: as §1, §2

soybean (Glycine max) = experiment: Test B pre-/postemergence; design: key: 0 is no effect; 10 is complete control
Description: as §1, §2

[12] = test system: momingglory (Ipomoea hederacea); experiment: Test B pre-/postemergence; design: key: 0 is no effect; 10 is complete control
Description: as §1, §2

[13] = test system: duck salad (Heteranthera limosa); experiment: Test B flood test
Summary of the method: (§3)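 Read-out is a visual response score from 0 (no effect) to 10 (complete control), assigned by comparison with untreated controls. Treatment was applied at the 2-leaf stage, and plants stayed in the greenhouse for twelve to sixteen days before scoring.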

[14] = test system: bamyardgrass (Echinochloa crus-galli); experiment: Test B flood test
Summary of the method: as §3

rice (Oryza sativa) = experiment: Test B flood test
Summary of the method: as §3

[15] = test system: smallflower flatsedge (Cyperus difformis); experiment: Test B flood test
Summary of the method: as §3

[16] = Rate 250 g/ha, Postemergence (so in the source)
[17] = Rate 62 g/ha, Postemergence (flood test)
[18] = Rate 125 g/ha, Postemergence, flood test
[19] = Rate 250 g/ha, Postemergence (flood test species)
[20] = Rate 125 g/ha, Postemergence section (flood test species)

SMILES: Cc1cnc(-c2ccc(F)cc2F)nc1Cc1cccc(C(F)(F)F)c1 [Compound 31]
- Plant response rating, Velvetleaf ([1]; Rate 62 g/ha, Postemergence): 2
- Velvetleaf plant response rating ([1]; Rate 62 g/ha, Preemergence): 0
- Velvetleaf plant response rating ([1]; Rate 125 g/ha, Postemergence): 2
- Plant response rating, Velvetleaf ([1]; Rate 125 g/ha, Preemergence): 0
- Plant response rating, Velvetleaf ([1]; Rate 250 g/ha, Postemergence): 4
- Plant response rating, Velvetleaf [1, 16]: 0
- Plant response rating, Giant foxtail ([2]; Rate 62 g/ha, Postemergence): 2
- Giant foxtail plant response rating ([2]; Rate 62 g/ha, Preemergence): 2
- Giant foxtail plant response rating ([2]; Rate 125 g/ha, Postemergence): 3
- Giant foxtail plant response rating ([2]; Rate 125 g/ha, Preemergence): 5
- Plant response rating, Giant foxtail ([2]; Rate 250 g/ha, Postemergence): 3
- Plant response rating, Giant foxtail [2, 16]: 10
- Plant response rating, Sugarbeets ([3]; Rate 62 g/ha, Postemergence): 10
- Sugarbeets plant response rating ([3]; Rate 62 g/ha, Preemergence): 0
- Sugarbeets plant response rating ([3]; Rate 125 g/ha, Postemergence): 10
- Plant response rating, Sugarbeets ([3]; Rate 125 g/ha, Preemergence): 0
- Plant response rating, Sugarbeets ([3]; Rate 250 g/ha, Postemergence): 10
- Plant response rating, Sugarbeets [3, 16]: 3
- Wild oats plant response rating (wild oat (Avena fatua); Rate 62 g/ha, Postemergence): 2
- Wild oats plant response rating (wild oat (Avena fatua); Rate 62 g/ha, Preemergence): 0
- Wild oats plant response rating (wild oat (Avena fatua); Rate 125 g/ha, Postemergence): 3
- Plant response rating, Wild oats (wild oat (Avena fatua); Rate 125 g/ha, Preemergence): 1
- Plant response rating, Wild oats (wild oat (Avena fatua); Rate 250 g/ha, Postemergence): 4
- Plant response rating, Wild oats (wild oat (Avena fatua); [16]): 2
- Plant response rating, Redroot pigweed ([4]; Rate 62 g/ha, Postemergence): 8
- Redroot pigweed plant response rating ([4]; Rate 62 g/ha, Preemergence): 1
- Redroot pigweed plant response rating ([4]; Rate 125 g/ha, Postemergence): 9
- Redroot pigweed plant response rating ([4]; Rate 125 g/ha, Preemergence): 2
- Plant response rating, Redroot pigweed ([4]; Rate 250 g/ha, Postemergence): 9
- Plant response rating, Redroot pigweed [4, 16]: 3
- Plant response rating, Corn (corn (Zea mays); Rate 62 g/ha, Postemergence): 2
- Corn plant response rating (corn (Zea mays); Rate 62 g/ha): 0
- Plant response rating, Corn (corn (Zea mays); Rate 125 g/ha, Postemergence): 2
- Corn plant response rating (corn (Zea mays); Rate 125 g/ha): 0
- Plant response rating, Corn (corn (Zea mays); Rate 250 g/ha, Postemergence): 2
- Plant response rating, Corn (corn (Zea mays); [16]): 1
- Plant response rating, Blackgrass ([5]; Rate 62 g/ha, Postemergence): 2
- Blackgrass plant response rating ([5]; Rate 62 g/ha): 1
- Plant response rating, Blackgrass ([5]; Rate 125 g/ha, Postemergence): 2
- Blackgrass plant response rating ([5]; Rate 125 g/ha): 2
- Plant response rating, Blackgrass ([5]; Rate 250 g/ha, Postemergence): 4
- Plant response rating, Blackgrass [5, 16]: 3
- Wheat plant response rating ([6]; Rate 62 g/ha, Postemergence): 1
- Wheat plant response rating ([6]; Rate 62 g/ha, Preemergence): 0
- Wheat plant response rating ([6]; Rate 125 g/ha, Postemergence): 3
- Plant response rating, Wheat ([6]; Rate 125 g/ha, Preemergence): 0
- Plant response rating, Wheat ([6]; Rate 250 g/ha, Postemergence): 4
- Plant response rating, Wheat [6, 16]: 0
- Plant response rating, B. signalgrass ([7]; Rate 62 g/ha, Postemergence): 3
- B. signalgrass plant response rating ([7]; Rate 62 g/ha): 3
- Plant response rating, B. signalgrass ([7]; Rate 125 g/ha, Postemergence): 3
- B. signalgrass plant response rating ([7]; Rate 125 g/ha): 9
- Plant response rating, B. signalgrass ([7]; Rate 250 g/ha, Postemergence): 5
- Plant response rating, B. signalgrass ([7]; Rate 250 g/ha, Postemergence as printed in head r139 (second section for compounds 26-50)): 9
- Plant response rating, Crabgrass ([8]; Rate 62 g/ha, Postemergence): 4
- Crabgrass plant response rating ([8]; Rate 62 g/ha): 1
- Plant response rating, Crabgrass ([8]; Rate 125 g/ha, Postemergence): 8
- Crabgrass plant response rating ([8]; Rate 125 g/ha): 4
- Plant response rating, Crabgrass ([8]; Rate 250 g/ha, Postemergence): 9
- Plant response rating, Crabgrass [8, 16]: 10
- Plant response rating, Cocklebur ([9]; Rate 62 g/ha): 6
- Cocklebur plant response rating ([9]; Rate 62 g/ha): 0
- Plant response rating, Cocklebur ([9]; Rate 125 g/ha): 6
- Cocklebur plant response rating ([9]; Rate 125 g/ha): 0
- Plant response rating, Cocklebur ([9]; Rate 250 g/ha): 7
- Plant response rating, Rape (rape (Brassica napus); Rate 62 g/ha, Postemergence): 8
- Rape plant response rating (rape (Brassica napus); Rate 62 g/ha, Preemergence): 0
- Rape plant response rating (rape (Brassica napus); Rate 125 g/ha, Postemergence): 8
- Rape plant response rating (rape (Brassica napus); Rate 125 g/ha, Preemergence): 0
- Plant response rating, Rape (rape (Brassica napus); Rate 250 g/ha, Postemergence): 9
- Plant response rating, Rape (rape (Brassica napus); [16]): 1
- Plant response rating, Bedstraw ([10]; Rate 62 g/ha): 4
- Plant response rating, Bedstraw ([10]; Rate 125 g/ha): 6
- Plant response rating, Bedstraw ([10]; Rate 250 g/ha): 6
- Plant response rating, Nutsedge ([11]; Rate 62 g/ha, Postemergence): 0
- Nutsedge plant response rating ([11]; Rate 62 g/ha, Preemergence): 0
- Nutsedge plant response rating ([11]; Rate 125 g/ha, Postemergence): 0
- Nutsedge plant response rating ([11]; Rate 125 g/ha, Preemergence): 0
- Plant response rating, Nutsedge [11, 16]: 0
- Plant response rating, Soybean (soybean (Glycine max); Rate 62 g/ha, Postemergence): 4
- Soybean plant response rating (soybean (Glycine max); Rate 62 g/ha, Preemergence): 0
- Soybean plant response rating (soybean (Glycine max); Rate 125 g/ha, Postemergence): 4
- Plant response rating, Soybean (soybean (Glycine max); Rate 125 g/ha, Preemergence): 0
- Plant response rating, Soybean (soybean (Glycine max); Rate 250 g/ha, Postemergence): 7
- Plant response rating, Soybean (soybean (Glycine max); [16]): 0
- Plant response rating, Morningglory ([12]; Rate 62 g/ha, Postemergence): 3
- Morningglory plant response rating ([12]; Rate 62 g/ha, Preemergence): 0
- Morningglory plant response rating ([12]; Rate 125 g/ha, Postemergence): 3
- Morningglory plant response rating ([12]; Rate 125 g/ha, Preemergence): 2
- Plant response rating, Morningglory ([12]; Rate 250 g/ha, Postemergence): 4
- Plant response rating, Morningglory [12, 16]: 2
- Plant response rating, Ducksalad [13, 17]: 1
- Plant response rating, Ducksalad [13, 18]: 2
- Plant response rating, Ducksalad [13, 19]: 6
- Plant response rating, Barnyardgrass [14, 17]: 2
- Plant response rating, Barnyardgrass [14, 18]: 3
- Plant response rating, Barnyardgrass [14, 19]: 5
- Plant response rating, Rice (rice (Oryza sativa); [17]): 1
- Rice plant response rating (rice (Oryza sativa); [20]): 2
- Plant response rating, Rice (rice (Oryza sativa); [19]): 3
- Plant response rating, S. Flatsedge [15, 17]: 4
- S. Flatsedge plant response rating [15, 20]: 7
- Plant response rating, S. Flatsedge [15, 19]: 8
